From patent US20150105252A1, “SUBSTITUTED PYRAZOLES AS HERBICIDES” (E I DU PONT DE NEMOURS AND COMPANY, priority 2013, published 2015)

Legend:
crabgrass, large [1] = assay: Test A preemergence; type: in vivo, Digitaria sanguinalis; settings: 0 to 100 scale
Method in brief: (§1)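 Ratings express plant response from 0 (no effect) to 100 (complete control), judged visually against untreated controls after approximately 10 days in the greenhouse. Preemergence applications were made as directed soil sprays onto seeded loam–sand mix, and postemergence applications onto 2–10 cm plants at one- to two-leaf stage.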

corn [2] = assay: Test A postemergence; type: in vivo, Zea mays
Method in brief: as §1

barnyardgrass [3] = assay: Test A postemergence; type: in vivo, Echinochloa crus-galli; settings: Postemergence
Method in brief: as §1

morningglory [4] = assay: Test A preemergence; type: in vivo, Ipomoea spp.; settings: 0 to 100 scale
Excerpt: (§2) Seeds of plant species selected from barnyardgrass (Echinochloa crus-galli), kochia (Kochia scoparia), common ragweed (Ambrosia elation), Italian ryegrass (Lolium multiflorum), crabgrass, large (large crabgrass, Digitaria sanguinalis), foxtail, giant (giant foxtail, Setaria faberii), morningglory (Ipomoea spp.), pigweed (redroot pigweed, Amaranthus retroflexus), velvetleaf (Abutilon theophrasti), wheat (Triticum aestivum), and corn (Zea mays) were planted into a blend of loam soil and sand and treated preemergence with a directed soil spray using test chemicals formulated in a non-phytotoxic solvent mixture which included a surfactant.
(§3) At the same time, plants selected from these crop and weed species and also blackgrass (Alopecurus myosuroides), and galium (catchweed bedstraw, Galium aparine) were planted in pots containing the same blend of loam soil and sand and treated with postemergence applications of test chemicals formulated in the same manner. Plants ranged in height from 2 to 10 cm and were in the one- to two-leaf stage for the postemergence treatment. Treated plants and untreated controls were maintained in a greenhouse for approximately 10 days, after which time all treated plants were compared to untreated controls and visually evaluated for injury. Plant response ratings, summarized in Table A, are based on a 0 to 100 scale where 0 is no effect and 100 is complete control. A dash (-) response means no test result.

barnyardgrass [5] = assay: Test A preemergence; type: in vivo, Echinochloa crus-galli; settings: 0 to 100 scale
Method in brief: as §1

crabgrass, large [6] = assay: Test A postemergence; type: in vivo, Digitaria sanguinalis
Method in brief: as §1

pigweed [7] = assay: Test A postemergence; type: in vivo, Amaranthus retroflexus
Excerpt: as §2, §3

corn [8] = assay: Test A preemergence; type: in vivo, Zea mays; settings: 0 to 100 scale
Method in brief: as §1

velvetleaf [9] = assay: Test A postemergence; type: in vivo, Abutilon theophrasti
Method in brief: as §1

foxtail, giant [10] = assay: Test A postemergence; type: in vivo, Setaria faberii
Excerpt: as §2, §3

wheat [11] = assay: Test A postemergence; type: in vivo, Triticum aestivum
Method in brief: as §1

pigweed [12] = assay: Test A preemergence; type: in vivo, Amaranthus retroflexus; settings: 0 to 100 scale
Excerpt: as §2, §3

morningglory [13] = assay: Test A postemergence; type: in vivo, Ipomoea spp.
Method in brief: as §1

foxtail, giant [14] = assay: Test A preemergence; type: in vivo, Setaria faberii; settings: 0 to 100 scale
Method in brief: as §1

wheat [15] = assay: Test A preemergence; type: in vivo, Triticum aestivum; settings: 0 to 100 scale
Method in brief: as §1

velvetleaf [16] = assay: Test A preemergence; type: in vivo, Abutilon theophrasti; settings: 0 to 100 scale
Method in brief: as §1

[17] = Preemergence, 500 g ai/ha, 0 no effect, 100 complete control
[18] = preemergence, 125 g ai/ha, visual injury, approx. 10 days
[19] = Postemergence, 500 g ai/ha, visual rating after approx. 10 days, 0 to 100 scale (0 no effect, 100 complete control)
[20] = postemergence, 125 g ai/ha, about 10 days, visual rating on 0 to 100 scale (0 no effect, 100 complete control)
[21] = Preemergence, 1000 g ai/ha, 0 no effect, 100 complete control
[22] = Postemergence, 1000 g ai/ha, visual rating after approx. 10 days, 0 to 100 scale (0 no effect, 100 complete control)
[23] = 1000 g ai/ha, visual rating after approx. 10 days, 0 to 100 scale (0 no effect, 100 complete control)

Cc1cc(C(=O)NC2CC2)nn1Cc1cc(F)cc(C(F)(F)F)c1 [Compound 14]
Crabgrass, Large plant response rating (crabgrass, large [1]; [17]): 90
Crabgrass, Large plant response rating (crabgrass, large [1]; [18]): 10
Corn plant response rating (corn [2]; [19]): 10
Corn plant response rating (corn [2]; [20]): 0
Barnyardgrass plant response rating (barnyardgrass [3]; 125 g ai/ha, 0 to 100 scale, 0 no effect, 100 complete control): 0
Barnyardgrass plant response rating (barnyardgrass [3]; 500 g ai/ha, visual rating after approx. 10 days, 0 to 100 scale (0 no effect, 100 complete control)): 10
Morningglory plant response rating (morningglory [4]; [17]): 20
Morningglory plant response rating (morningglory [4]; [18]): 0
Barnyardgrass plant response rating (barnyardgrass [5]; [17]): 10
Barnyardgrass plant response rating (barnyardgrass [5]; [18]): 0
Crabgrass, Large plant response rating (crabgrass, large [6]; [19]): 40
Crabgrass, Large plant response rating (crabgrass, large [6]; [20]): 20
Pigweed plant response rating (pigweed [7]; [19]): 70
Pigweed plant response rating (pigweed [7]; [20]): 50
Corn plant response rating (corn [8]; [17]): 0
Corn plant response rating (corn [8]; [18]): 0
Velvetleaf plant response rating (velvetleaf [9]; [19]): 30
Velvetleaf plant response rating (velvetleaf [9]; [20]): 20
Foxtail, Giant plant response rating (foxtail, giant [10]; [19]): 20
Foxtail, Giant plant response rating (foxtail, giant [10]; [20]): 0
Wheat plant response rating (wheat [11]; [19]): 0
Wheat plant response rating (wheat [11]; [20]): 0
Pigweed plant response rating (pigweed [12]; [17]): 100
Pigweed plant response rating (pigweed [12]; [18]): 100
Morningglory plant response rating (morningglory [13]; [19]): 80
Morningglory plant response rating (morningglory [13]; [20]): 50
Foxtail, Giant plant response rating (foxtail, giant [14]; [17]): 90
Foxtail, Giant plant response rating (foxtail, giant [14]; [18]): 10
Wheat plant response rating (wheat [15]; [18]): 0
Velvetleaf plant response rating (velvetleaf [16]; [17]): 0
Velvetleaf plant response rating (velvetleaf [16]; [18]): 0

CCNC(=O)c1cc(CC)n(Cc2cccc(C(F)(F)F)c2)n1 [Compound 17]
Crabgrass, Large plant response rating (crabgrass, large [1]; [21]): 100
Corn plant response rating (corn [2]; [22]): 40
Barnyardgrass plant response rating (barnyardgrass [3]; [23]): 40
Morningglory plant response rating (morningglory [4]; [21]): 80
Barnyardgrass plant response rating (barnyardgrass [5]; [21]): 80
Crabgrass, Large plant response rating (crabgrass, large [6]; [22]): 90
Pigweed plant response rating (pigweed [7]; [22]): 90
Corn plant response rating (corn [8]; [21]): 10
Velvetleaf plant response rating (velvetleaf [9]; [22]): 100
Foxtail, Giant plant response rating (foxtail, giant [10]; [22]): 90
Wheat plant response rating (wheat [11]; [22]): 30
Pigweed plant response rating (pigweed [12]; [21]): 100
Morningglory plant response rating (morningglory [13]; [22]): 100
Foxtail, Giant plant response rating (foxtail, giant [14]; [21]): 100
Wheat plant response rating (wheat [15]; [21]): 20
Velvetleaf plant response rating (velvetleaf [16]; [21]): 100

CCc1cc(C(=O)NCC(F)(F)F)nn1Cc1cccc(C(F)(F)F)c1 [Compound 18]
Crabgrass, Large plant response rating (crabgrass, large [1]; [21]): 100
Corn plant response rating (corn [2]; [22]): 70
Barnyardgrass plant response rating (barnyardgrass [3]; [23]): 50
Morningglory plant response rating (morningglory [4]; [21]): 70
Barnyardgrass plant response rating (barnyardgrass [5]; [21]): 80
Crabgrass, Large plant response rating (crabgrass, large [6]; [22]): 90
Pigweed plant response rating (pigweed [7]; [22]): 90
Corn plant response rating (corn [8]; [21]): 30
Velvetleaf plant response rating (velvetleaf [9]; [22]): 100
Foxtail, Giant plant response rating (foxtail, giant [10]; [22]): 90
Wheat plant response rating (wheat [11]; [22]): 40
Pigweed plant response rating (pigweed [12]; [21]): 90
Morningglory plant response rating (morningglory [13]; [22]): 100
Foxtail, Giant plant response rating (foxtail, giant [14]; [21]): 100
Wheat plant response rating (wheat [15]; [21]): 40
Velvetleaf plant response rating (velvetleaf [16]; [21]): 100

CCNC(=O)c1cc(CC)n(Cc2cccc(OC(F)(F)F)c2)n1 [Compound 19]
Crabgrass, Large plant response rating (crabgrass, large [1]; [21]): 100
Corn plant response rating (corn [2]; [22]): 20
Barnyardgrass plant response rating (barnyardgrass [3]; [23]): 60
Morningglory plant response rating (morningglory [4]; [21]): 90
Barnyardgrass plant response rating (barnyardgrass [5]; [21]): 90
Crabgrass, Large plant response rating (crabgrass, large [6]; [22]): 80
Pigweed plant response rating (pigweed [7]; [22]): 100
Corn plant response rating (corn [8]; [21]): 30
Velvetleaf plant response rating (velvetleaf [9]; [22]): 100
Foxtail, Giant plant response rating (foxtail, giant [10]; [22]): 70
Wheat plant response rating (wheat [11]; [22]): 20
Pigweed plant response rating (pigweed [12]; [21]): 100
Morningglory plant response rating (morningglory [13]; [22]): 90
Foxtail, Giant plant response rating (foxtail, giant [14]; [21]): 100
Wheat plant response rating (wheat [15]; [21]): 10
Velvetleaf plant response rating (velvetleaf [16]; [21]): 80

CSc1cc(C(=O)NC2CC2)nn1Cc1cccc(C(F)(F)F)c1 [Compound 22]
Crabgrass, Large plant response rating (crabgrass, large [1]; [21]): 10
Corn plant response rating (corn [2]; [22]): 10
Barnyardgrass plant response rating (barnyardgrass [3]; [23]): 30
Morningglory plant response rating (morningglory [4]; [21]): 0
Barnyardgrass plant response rating (barnyardgrass [5]; [21]): 0
Crabgrass, Large plant response rating (crabgrass, large [6]; [22]): 50
Pigweed plant response rating (pigweed [7]; [22]): 60
Corn plant response rating (corn [8]; [21]): 0
Velvetleaf plant response rating (velvetleaf [9]; [22]): 80
Foxtail, Giant plant response rating (foxtail, giant [10]; [22]): 40
Wheat plant response rating (wheat [11]; [22]): 20
Pigweed plant response rating (pigweed [12]; [21]): 0
Morningglory plant response rating (morningglory [13]; [22]): 100
Foxtail, Giant plant response rating (foxtail, giant [14]; [21]): 20
Wheat plant response rating (wheat [15]; [21]): 0
Velvetleaf plant response rating (velvetleaf [16]; [21]): 0

CCNC(=O)c1cc(SC)n(Cc2cccc(C(F)(F)F)c2)n1 [Compound 23]
Crabgrass, Large plant response rating (crabgrass, large [1]; [21]): 0
Corn plant response rating (corn [2]; [22]): 20
Barnyardgrass plant response rating (barnyardgrass [3]; [23]): 10
Morningglory plant response rating (morningglory [4]; [21]): 0
Barnyardgrass plant response rating (barnyardgrass [5]; [21]): 0
Crabgrass, Large plant response rating (crabgrass, large [6]; [22]): 30
Pigweed plant response rating (pigweed [7]; [22]): 40
Corn plant response rating (corn [8]; [21]): 0
Velvetleaf plant response rating (velvetleaf [9]; [22]): 30
Foxtail, Giant plant response rating (foxtail, giant [10]; [22]): 30
Wheat plant response rating (wheat [11]; [22]): 0
Pigweed plant response rating (pigweed [12]; [21]): 0
Morningglory plant response rating (morningglory [13]; [22]): 100
Foxtail, Giant plant response rating (foxtail, giant [14]; [21]): 0
Wheat plant response rating (wheat [15]; [21]): 0
Velvetleaf plant response rating (velvetleaf [16]; [21]): 0

C=CCNC(=O)c1cc(CC)n(Cc2cccc(C(F)(F)F)c2)n1 [Compound 44]
Crabgrass, Large plant response rating (crabgrass, large [1]; [21]): 50
Corn plant response rating (corn [2]; [22]): 20
Barnyardgrass plant response rating (barnyardgrass [3]; [23]): 10
Morningglory plant response rating (morningglory [4]; [21]): 20
Barnyardgrass plant response rating (barnyardgrass [5]; [21]): 10
Crabgrass, Large plant response rating (crabgrass, large [6]; [22]): 20
Pigweed plant response rating (pigweed [7]; [22]): 50
Corn plant response rating (corn [8]; [21]): 20
Velvetleaf plant response rating (velvetleaf [9]; [22]): 40
Foxtail, Giant plant response rating (foxtail, giant [10]; [22]): 50
Wheat plant response rating (wheat [11]; [22]): 20
Pigweed plant response rating (pigweed [12]; [21]): 10
Morningglory plant response rating (morningglory [13]; [22]): 70
Foxtail, Giant plant response rating (foxtail, giant [14]; [21]): 50
Wheat plant response rating (wheat [15]; [21]): 0
Velvetleaf plant response rating (velvetleaf [16]; [21]): 0
